# Experimental data published in ChEMBL document CHEMBL4190166 (Medchemcomm, 2016).
# Key:
# [1] = molecular target: Protein cereblon/Tyrosine-protein kinase ABL1 (Homo sapiens) (UniProt P00519+Q96SW2); experiment: Proteolysis targeting chimera activity in human K562 cells assessed as induction of cereblon-mediated delivery of ABL for protein degradation by proteasome at 1 uM after 24 hrs by immuno blot analysis relative to control; type: cell-based
# [2] = molecular target: Protein cereblon/Tyrosine-protein kinase ABL1/Breakpoint cluster region protein (Homo sapiens) (UniProt P00519+P11274+Q96SW2); experiment: Proteolysis targeting chimera activity in human K562 cells assessed as induction of cereblon-mediated delivery of BCR-ABL for protein degradation by proteasome at 1 uM after 24 hrs by immuno blot analysis relative to control; type: cell-based
# [3] = molecular target: T1, Protein cereblon/Bromodomain-containing protein 4 (Homo sapiens, UniProt O60885+Q96SW2); experiment: Proteolysis targeting chimera activity in human MV4-11 cells assessed as induction of cereblon-mediated delivery of BRD4 for protein degradation by proteasome at 100 nM incubated for 18 hrs by immuno blot analysis; type: cell-based
# [4] = molecular target: von Hippel-Lindau disease tumor suppressor/Bromodomain-containing protein 2 (Homo sapiens, UniProt P25440+P40337); experiment: Proteolysis targeting chimera activity in human 22Rv1 cells assessed as induction of VHL-mediated delivery of BRD2 for protein degradation by proteasome by measuring drug level causing 50% substrate depletion incubated for 16 hrs by Western blot method; type: cell-based
# [5] = system: VCaP; experiment: Antitumor activity against human VCaP cells xenografted in SCID mouse assessed as tumor growth inhibition at 10 mg/kg, sc administered every 3 days for 16 days relative to control; type: functional; conditions: read-out: TGI
# [6] = molecular target: Protein cereblon/Peptidyl-prolyl cis-trans isomerase FKBP1A (Homo sapiens, UniProt P62942+Q96SW2); experiment: Proteolysis targeting chimera activity in human MV4-11 cells assessed as induction of cereblon-mediated delivery of FKBP12 for protein degradation by proteasome incubated for 18 hrs by immuno blot analysis; type: cell-based
# [7] = molecular target: T1, Protein cereblon/Bromodomain-containing protein 4; experiment: Proteolysis targeting chimera activity in human BL cells assessed as induction of cereblon-mediated delivery of BRD4 for protein degradation by proteasome by immuno blot analysis; type: cell-based
# [8] = molecular target: von Hippel-Lindau disease tumor suppressor/Steroid hormone receptor ERR1 (Homo sapiens, UniProt P11474+P40337); experiment: Proteolysis targeting chimera activity in human MCF7 cells assessed as induction of VHL-mediated delivery of ERRalpha for protein degradation by proteasome by measuring drug level causing 50% substrate depletion incubated for 24 hrs by Western blot method; type: cell-based
# [9] = system: Heart; experiment: In vivo induction of ERRalpha degradation in CD-1 mouse heart at 100 mg/kg, ip every 8 hrs measured 5 hrs post last dose by LC/MS analysis relative to control; type: functional
# [10] = system: Kidney; experiment: In vivo induction of ERRalpha degradation in CD-1 mouse kidney at 100 mg/kg, ip every 8 hrs measured 5 hrs post last dose by LC/MS analysis relative to control; type: functional
# [11] = system: MDA-MB-231; experiment: In vivo induction of ERRalpha degradation in human MDA-MB-231 cells xenografted in […] mouse at 100 mg/kg, ip every 8 hrs measured 5 hrs post last dose by LC/MS analysis relative to control; type: functional
# T1 sequence (Q96SW2 whole entry, looked up, other chains not shown): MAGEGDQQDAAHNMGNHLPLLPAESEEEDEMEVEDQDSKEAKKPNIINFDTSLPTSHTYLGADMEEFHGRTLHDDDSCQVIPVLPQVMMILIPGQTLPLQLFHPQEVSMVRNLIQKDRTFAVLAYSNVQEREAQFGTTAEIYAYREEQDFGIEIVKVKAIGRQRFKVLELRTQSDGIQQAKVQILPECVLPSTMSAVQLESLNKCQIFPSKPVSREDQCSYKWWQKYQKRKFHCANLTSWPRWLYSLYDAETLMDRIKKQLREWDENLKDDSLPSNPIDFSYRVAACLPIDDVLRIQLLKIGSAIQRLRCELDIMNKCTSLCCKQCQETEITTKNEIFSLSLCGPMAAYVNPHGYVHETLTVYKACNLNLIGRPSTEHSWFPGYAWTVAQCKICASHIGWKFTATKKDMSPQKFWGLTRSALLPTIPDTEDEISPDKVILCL
# Sequence of Protein cereblon/Tyrosine-protein kinase ABL1/Breakpoint cluster region protein (Homo sapiens) (P00519 whole entry, looked up): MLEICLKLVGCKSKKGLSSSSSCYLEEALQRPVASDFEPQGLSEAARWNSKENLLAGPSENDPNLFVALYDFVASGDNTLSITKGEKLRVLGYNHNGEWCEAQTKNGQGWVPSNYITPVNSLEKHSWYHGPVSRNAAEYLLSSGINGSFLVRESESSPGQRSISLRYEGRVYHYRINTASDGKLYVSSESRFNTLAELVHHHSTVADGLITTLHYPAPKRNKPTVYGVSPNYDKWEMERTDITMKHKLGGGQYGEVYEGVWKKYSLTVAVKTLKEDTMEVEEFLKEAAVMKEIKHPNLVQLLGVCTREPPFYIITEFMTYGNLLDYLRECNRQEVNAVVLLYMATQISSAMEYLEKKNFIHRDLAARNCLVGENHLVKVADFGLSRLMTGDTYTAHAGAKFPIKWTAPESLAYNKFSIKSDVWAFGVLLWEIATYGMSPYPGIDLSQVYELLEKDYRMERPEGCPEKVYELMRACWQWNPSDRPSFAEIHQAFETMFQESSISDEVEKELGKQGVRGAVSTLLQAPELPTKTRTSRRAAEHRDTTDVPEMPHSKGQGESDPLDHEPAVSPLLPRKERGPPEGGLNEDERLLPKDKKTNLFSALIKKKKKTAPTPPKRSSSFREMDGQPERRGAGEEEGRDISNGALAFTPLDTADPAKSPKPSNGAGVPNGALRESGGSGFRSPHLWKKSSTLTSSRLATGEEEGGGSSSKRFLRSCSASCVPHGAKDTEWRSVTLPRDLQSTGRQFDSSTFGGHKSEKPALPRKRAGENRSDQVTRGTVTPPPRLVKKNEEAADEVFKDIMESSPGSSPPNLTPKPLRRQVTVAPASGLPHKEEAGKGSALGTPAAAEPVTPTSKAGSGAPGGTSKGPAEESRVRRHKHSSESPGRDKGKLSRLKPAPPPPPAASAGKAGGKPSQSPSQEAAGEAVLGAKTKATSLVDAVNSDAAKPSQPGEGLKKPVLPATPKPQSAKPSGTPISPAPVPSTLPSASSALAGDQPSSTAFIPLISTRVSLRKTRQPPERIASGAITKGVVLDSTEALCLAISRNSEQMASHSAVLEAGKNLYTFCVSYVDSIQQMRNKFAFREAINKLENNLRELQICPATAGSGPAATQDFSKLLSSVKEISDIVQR
# Sequence of Protein cereblon/Tyrosine-protein kinase ABL1/Breakpoint cluster region protein (Homo sapiens) (P11274 whole entry, looked up): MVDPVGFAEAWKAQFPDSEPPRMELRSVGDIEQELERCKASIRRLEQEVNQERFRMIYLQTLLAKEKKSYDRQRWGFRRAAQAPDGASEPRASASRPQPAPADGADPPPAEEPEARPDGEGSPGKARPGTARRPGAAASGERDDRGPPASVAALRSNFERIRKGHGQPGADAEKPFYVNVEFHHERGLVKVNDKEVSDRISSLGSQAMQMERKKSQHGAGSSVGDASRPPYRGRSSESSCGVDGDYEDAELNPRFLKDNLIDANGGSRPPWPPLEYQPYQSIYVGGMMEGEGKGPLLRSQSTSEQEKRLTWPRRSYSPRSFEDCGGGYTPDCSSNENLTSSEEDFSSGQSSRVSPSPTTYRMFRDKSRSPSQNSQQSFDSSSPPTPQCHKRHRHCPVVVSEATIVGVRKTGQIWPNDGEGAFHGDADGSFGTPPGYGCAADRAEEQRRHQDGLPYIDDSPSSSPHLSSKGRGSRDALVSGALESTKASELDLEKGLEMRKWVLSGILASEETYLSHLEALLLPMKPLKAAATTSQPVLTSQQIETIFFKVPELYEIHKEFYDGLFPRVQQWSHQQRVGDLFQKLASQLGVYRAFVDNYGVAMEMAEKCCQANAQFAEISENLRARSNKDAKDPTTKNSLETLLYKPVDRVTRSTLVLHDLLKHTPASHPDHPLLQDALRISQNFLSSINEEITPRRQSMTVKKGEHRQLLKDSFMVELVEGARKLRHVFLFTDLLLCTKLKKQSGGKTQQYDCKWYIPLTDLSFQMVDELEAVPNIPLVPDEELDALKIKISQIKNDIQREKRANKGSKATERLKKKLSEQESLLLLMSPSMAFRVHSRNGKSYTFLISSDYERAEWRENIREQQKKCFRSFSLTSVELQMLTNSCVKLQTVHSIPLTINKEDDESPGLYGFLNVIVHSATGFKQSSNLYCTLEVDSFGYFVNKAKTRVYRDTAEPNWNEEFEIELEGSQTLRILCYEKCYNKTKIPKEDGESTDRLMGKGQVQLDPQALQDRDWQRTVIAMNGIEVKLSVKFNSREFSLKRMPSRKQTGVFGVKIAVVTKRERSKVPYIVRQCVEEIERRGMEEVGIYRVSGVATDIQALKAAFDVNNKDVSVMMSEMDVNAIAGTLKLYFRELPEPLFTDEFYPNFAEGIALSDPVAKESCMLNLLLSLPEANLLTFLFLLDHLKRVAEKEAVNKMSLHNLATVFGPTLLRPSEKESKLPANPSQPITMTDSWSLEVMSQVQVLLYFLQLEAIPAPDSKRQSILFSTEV
# Sequence of Protein cereblon/Tyrosine-protein kinase ABL1/Breakpoint cluster region protein (Homo sapiens) (Q96SW2 whole entry, looked up): as the sequence (Q96SW2 whole entry, looked up, other chains not shown) above
# Sequence of Protein cereblon/Tyrosine-protein kinase ABL1 (Homo sapiens) (P00519 whole entry, looked up): as the sequence (P00519 whole entry, looked up) above
# Sequence of Protein cereblon/Tyrosine-protein kinase ABL1 (Homo sapiens) (Q96SW2 whole entry, looked up): as the sequence (Q96SW2 whole entry, looked up, other chains not shown) above
structure (smiles),measurement,setting,value
Cc1nc(Nc2ncc(C(=O)Nc3c(C)cccc3Cl)s2)cc(N2CCN(CCCCCCOCCOCCOCCCCCc3cccc4c3C(=O)N(C3CCC(=O)NC3=O)C4=O)CC2)n1 (stereo not drawn),Imax,[1],> 85%
same,Imax,[2],> 60%
COc1cc(Nc2c(C#N)cnc3cc(OCCCN4CCN(CCCCCCOCCOCCOCCCCCc5cccc6c5C(=O)N(C5CCC(=O)NC5=O)C6=O)CC4)c(OC)cc23)c(Cl)cc1Cl (stereo not drawn),Imax,[1],90%
same,Imax,[2],80%
Cc1sc2c(c1C)C(c1ccc(Cl)cc1)=C[C@@H](CC(=O)NCCCCNC(=O)COc1cccc3c1C(=O)N(C1CCC(=O)NC1=O)C3=O)c1nnc(C)n1-2 (stereo partly drawn),Imax,[3],> 85%
Cc1ncsc1-c1ccc([C@H](C)NC(=O)[C@@H]2C[C@@H](O)CN2C(=O)[C@@H](NC(=O)COCCCOCCNC(=O)C[C@@H]2N=C(c3ccc(Cl)cc3)c3c(sc(C)c3C)-n3c(C)nnc32)C(C)(C)C)cc1,IC50,[4],< 5 nM
same,inhibition in vivo at 10 mg/kg,[5],60%
CCC(C)(C)C(=O)C(=O)N1CCCC[C@H]1C(=O)O[C@H](CCc1ccc(OC)c(OC)c1)c1cccc(NC(=O)CCC(=O)NCCNC(=O)COc2cccc3c2C(=O)N(C2CCC(=O)NC2=O)C3=O)c1 (stereo partly drawn),IC50,[6],10 nM
Cc1sc2c(c1C)C(c1ccc(Cl)cc1)=C[C@@H](CC(=O)Nc1ccc(OCCOCCOCCOCCNc3cccc4c3C(=O)N(C3CCC(=O)NC3=O)C4=O)cc1)c1nnc(C)n1-2 (stereo partly drawn),IC50,[7],< 1 nM
COc1cc(/C=C2\SC(=O)N(CCOCCC(=O)N[C@H](C(=O)N3C[C@H](O)C[C@H]3C(=O)NCc3ccc(-c4scnc4C)cc3)C(C)(C)C)C2=O)ccc1Oc1ccc(C#N)cc1C(F)(F)F,IC50,[8],100 nM
same,Activity,[9],40%
same,Activity,[10],40%
same,Activity,[11],40%
